From patent US8097615B2, “Neurofibrillary labels” (Wista Laboratories Ltd., priority 2001, dated 2012)
Entries after “also recorded” stand apart in the source; their conditions may differ. Read-outs that look alike come from different tables or passages of the source.

Tests used:
tangle fragments = experiment: Competitive binding assay: displacement of primulin fluorescence from tangle fragments (ifI); set-up: species or system human; settings: for competition with / displacement of other ligands at tangles: fluorescence end point
Experimental: IfI material was homogenised in a 0.2 ml glass homogeniser in PBS. To the suspension, test compounds were added to final concentrations ranging from 0.1% to 0.00001%. […] The suspensions were transferred to a glass slide, and examined by fluorescence microscopy across a range of fluorescence filter blocks, covering excitation and emission wavelengths between 380 nm and 570 nm. The end point sought in these observations was displacement of typical primulin fluorescence from tangle fragments.

amyloid = experiment: Labelling / staining of amyloid deposits; type: binding
tau-tau binding = molecular target: T1, tau-tau binding (Homo sapiens, UniProt P10636); experiment: Solid-phase tau-tau binding assay (dGA solid phase, dGAE liquid phase), tau Preparation 2; type: biochemical; settings: for tau-tau binding relative to that seen in the absence of DMMB: tau typically 1 μM
T1 construct: a truncated tau protein corresponding to the core fragment and terminating at Ala390-dGA; dGAE which terminates at Glu-391; made in house; host or cells: E. coli BL21 (DE3), pRK172; DE52 flow-through, P11 phosphocellulose, PEG concentration, no heat step (Preparation 2)
Experimental: Preparation 2 differs from Preparation 1 above in the following respects: (1) The concentration of cells at the sonication stage is increased by 5-fold. (2) A batchwise adsorption of non-tau proteins to DE52 is included. (3) The proteins are not subjected to heat treatment. (4) The final step involves concentration using polyethylene glycol.
Escherichia coli is grown in 2×TY medium (Oxoid) supplemented with ampicillin (50 micrograms per ml) to late-logarithmic phase. Cells from 5 liters of culture are harvested by centrifugation and the cell pellets frozen rapidly over liquid nitrogen. The pellets are taken up with 50 mM PIPES (pH 6.8) containing 1 mM EDTA, 1 mM dithiothreitol and 1 mM phenylmethylsulphonylfluoride (PMSF) and bacteria lysed by sonication (2×3 min) at 4 C. The mixture is centrifuged at 10,000 rpm for 20 min. The supernatant is rotated with 1 gram of Whatman DE52 for 3 hr at 4 C. The mixture is separated on a column and the flow-through material that fails to bind to DE52 is incubated for 3 hr at 4 C, with rotation, with 0.4 g of Whatman P11 (freshly regenerated according to manufacturer's recommendations). The column is washed with column buffer (50 mM PIPES, pH 6.8 containing 1 mM EGTA, 5 mM EDTA, 0.2 mM MgCl2, 5 mM β-mercaptoethanol and 1 mM PMSF). Tau protein is eluted stepwise with a 0.1 to 1 M gradient of KCl in column buffer. Fractions containing tau (determined by immunoassay) are pooled and dialysed against 80 mM PIPES (pH6.8) containing 1 mM EGTA, 1 mM MgCl2 and 5 mM β-mercatoethanol, using dialysis tubing with a molecular weight cut-off of 1,000. The dialysate is concentrated by applying polyethylene glycol 8000 to the outside of the sac for 2-3 hr. The final concentration of tau ranged from 3 to 10 mg per ml.
When the proteins dGA and dGAE were prepared as indicated above (“Preparation 2”), the properties of the tau-tau binding assay were altered relative to the properties obtained using the preparative method described in WO96/30766 (“Preparation 1”).
The assay is performed using 96 well PVC plates (Falcon Cat. No. 353912 are used), and the following steps:
1. 50 μl dGA (˜10 μg/ml) in carbonate buffer, incubate 1 h at 37° C.
(Carbonate buffer: 50 mM carbonate bicarbonate, pH 9.6 (Na2CO3 1.59 g/l, NaHCO3 2.93 g/l))
2. Wash plate in 0.05% Tween-20.
3. 200 μl PBS+2% Marvel, incubate 1 h at 37° C.
4. Rinse plate 2× in deionised water, then wash in 0.05% Tween-20.
5. 50 μl dGAE (˜10 μg/ml) plus drug in PBS+1% fish skin gelatin+0.05% Tween-20, incubate 1 h at 37° C.
6. Wash plate in 0.05% Tween-20.
7. 50 μl antibody 423 (1:10 dilution in PBS+2% Marvel), incubate 1 h at 37° C.
8. Rinse plate 2× in deionised water, then wash in 0.05% Tween-20.
9. 50 μl HRP-anti-mouse (1:1000 dilution in PBS+0.05% Tween-20), incubate 1 h at 37° C.
10. Wash plate in 0.05% Tween-20, then rinse 1× with deionised water.
11. 50 μl substrate solution, read immediately initial rate over 2 min in plate reader at OD650.
(Substrate solution: 50 mM sodium acetate, pH 5.0+TMB (1 ml/100 ml of a 10 mg/ml solution in DMSO)+H2O2 (10 μl/100 ml)).

isolated PHFs = experiment: Ligand electronmicroscopy of Pronase-digested PHFs (gold-conjugated anti-biotin antibody); type: binding
Experimental: (§1) In ifI suspensions such as this, tangles can be seen by blue fluorescence which is […] from that associated with binding of contaminants in the preparation. […] (a) Chemical labelling with the biotinylated benzothiazole analogue shown as 4b in FIG. 4. PHFs were deposited on a carbon-coated grid after Pronase digestion, and incubated briefly with compound 4b, and then incubated with an anti-biotin antibody preparation that had been conjugated with colloidal gold. […] (b) mAb 423 immunolabelling of isolated PHFs after Pronase digestion., followed by incubation with a gold-conjugated goat anti-mouse second antibody as described in Novak et al. 1993 (Novak M, Kabat J, Wischik C M (1993) “Molecular characterisation of the minimal protease-resistant tau unit of the Alzheimers' disease paired helical filament”, EMBO J. 12: 365-370). As shown in this paper, mAb 423 labels PHFs derived from intracellular tangles (which preserve N-terminal tau immunoreactivity in the fuzzy outer coat) poorly, but Pronase digested PHFs strongly.
PHFs derived from an ifI fraction were deposited on a carbon coated grid after pronase digestion, and incubated briefly with a preparation of biotinylated Primulin, and then incubated with an anti-biotin antibody that has been conjugated with colloidal gold by the method of Slot and Gueze (1981).

PHFs = experiment: Spectrofluorometry of primulin in solution and bound to PHFs (ifII); type: binding; settings: PHFs with bound primulin treated with the substance
Experimental: These measurements were carried out in a Perkin-Elmer spectrofluorimeter (model MPF-3). A concentration of ligand of 0.00001% was routinely used for all measurements. […] All measurements were therefore carried out at a standard excitation wavelength of 370 nm, and a constant slit width of 3 mm.
Further investigations into the relationship between aggregation-dependent tau ligands and tau aggregation inhibitors were carried out using primulin. Primulin in solution has a fluorescence peak at 520 nm. This shifts to 470 nm when primulin is bound within a pure preparation of PHFs (FIG. 6). […] Therefore, binding by such compounds is dependent on the polymerised state of tau found in the PHF, but is not present in free tau.
Compounds have been identified which disrupt the structure of the PHF and reverse the proteolytic stability of the PHF core (see WO 96/30766). Examples of such compounds are shown in accompanying FIG. 8. The present inventors have now identified that these compounds bind to tau at a specific binding site within the high affinity tau-tau binding domain.

neurofibrillary tangles = experiment: Fluorescence labelling of tangles (sections, ifI tangle suspensions); type: binding, human
Experimental: as §1
Serial 16 μm sections are cut from the hippocampus of a case dying with clinically and neuropathologically confirmed AD. […]
A Leitz fluorescence microscope fitted with a photo-multiplyer tube (Model MPV-2) was used to quantitate fluorescence emission. […]

T1 sequence (P10636 614-708 limits assumed): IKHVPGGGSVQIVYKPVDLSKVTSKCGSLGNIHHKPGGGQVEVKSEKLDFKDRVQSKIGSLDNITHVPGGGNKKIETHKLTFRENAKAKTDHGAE

In the case of “2-(4-amino phenyl)-6-methyl-1-sulphonate benzothiazole [compound 2]”, the “displaced from tangles by primulin (SB-ligand)” value (from here on “displaced from tangles”) (tangle fragments) is reported as “displaced from NFTs; also recorded: displace this from tangles”, the “displaced from amyloid by primulin” value (amyloid) is reported as “not amyloid” and the “labelling / staining of amyloid” value (amyloid) is reported as “bind preferentially to amyloid”.

In the case of `Cc1cc(=[N+](C)C)cc2sc3cc(N(C)C)cc(C)c3nc1-2.[Cl-]` [DMMB, dimethyl methylene blue], the “inhibitory potency in Preparation 2 compared with Preparation 1” value (tau-tau binding) is reported as “higher inhibitory potency in Preparation 2 than in Preparation 1”, the “tau-tau binding relative to that seen in the absence of DMMB” value (tau-tau binding; DMMB 5 μM) is reported as 23% and the “tau-tau binding relative to that seen in the absence of DMMB” value (tau-tau binding; DMMB 15 μM) is reported as 17%.

For `O=C(O)CCCC[C@@H]1SC[C@@H]2NC(=O)N[C@@H]21` [biotin], the “immunogold anti-biotin labelling of isolated PHFs after pre-incubation” value (isolated PHFs) was “no labelling”.

`CC1=CC(=O)OC1=O` [citraconic anhydride] was tested, and the “effect on PHF-bound primulin fluorescence peak” value (PHFs) was “disrupting the orderly structure of PHFs and releasing free tau and free unbound primulin; also recorded: abolish the 470 nm fluorescence peak”.

With `Cc1ccc2sc(-c3ccc(N=Nc4ccccc4O)cc3)nc2c1S(=O)(=O)[O-].[Na+]` [compound 4a] the activity as ligand (tangle fragments) was “active ligands” and the “competition with / displacement of other ligands at tangles” value (from here on “competition with / displacement”) (tangle fragments) was “compete out thiazin red and primulin fluorescence at equivalent concentrations”.

`Cc1ccc2sc(-c3ccc(N=Nc4cc(CCC(=O)ON5C(=O)CCC5=O)ccc4O)cc3)nc2c1S(=O)(=O)[O-].[Na+]` [compound 4b] was tested, and the “competition with / displacement” value (tangle fragments) was “compete primulin and thiazin red” and the “immunogold anti-biotin labelling of isolated PHFs after pre-incubation” value (isolated PHFs) was “binds to the proteolytically stable PHF structure; also recorded: label isolated PHFs”.

In the case of `Cc1ccc2sc(-c3ccc(N=NNc4ccc(-c5nc6c(S(=O)(=O)[O-])c(C)ccc6s5)cc4)cc3)nc2c1S(=O)(=O)[O-].[Na+].[Na+]` [thiazin yellow], the activity as ligand (tangle fragments) is reported as “inactive as a ligand; also recorded: does not serve as an effective ligand” and the “competition with / displacement” value (tangle fragments) is reported as “did not”.

With `Cc1ccc2c(c1)sc(-c1ccc(N(C)C)cc1)[n+]2C.[Cl-]` [thioflavin-T] the labelling of tangles (neurofibrillary tangles) was “barely visible tangle; also recorded: much less effective”, the “displaced from tangles” value (tangle fragments) was “displaced by yellow tangle fluorescence produced by primulin; also recorded: can be displaced from tangles by primulin” and the “displaced from tangles” value (tangle fragments; listed as 1b) was “displaced from NFTs”. For the same compound, the “displaced from tangles” value (tangle fragments; listed as compound 1b) was “displace compound 1b at tangles”, the “labelling / staining of amyloid” value (amyloid) was “labelled amyloid preferentially; also recorded: strongly stain amyloid deposits” and the “labelling / staining of amyloid” value (amyloid; listed as 1b) was “bind preferentially to amyloid”.

alcian blue was tested, and the “effect on PHF-bound primulin fluorescence peak” value (PHFs) was “no disturbance of the characteristic bound primulin fluorescence peak; also recorded: retention of the fluorescence peak of primulin at 470 nm”.
